Reference: ChEMBL document CHEMBL5528026, “Structural modification of C2-substituents on 1,4-bis(arylsulfonamido)benzene or naphthalene-N,N'-diacetic acid derivatives as potent inhibitors of the Keap1-Nrf2 protein-protein interaction” (Eur J Med Chem, 2024)

Assays:
Keap1/Nrf2 [1] = molecular target: T1, Keap1/Nrf2 (Homo sapiens, UniProt Q14145); assay: Inhibition of Keap1-Nrf2 protein-protein interaction (unknown origin) by fluorescence polarization assay
Keap1/Nrf2 [2] = molecular target: T1, Keap1/Nrf2; assay: Inhibition of Keap1-Nrf2 protein-protein interaction (unknown origin) assessed as inhibition constant by fluorescence polarization assay
Keap1/Nrf2 [3] = molecular target: T2, Keap1/Nrf2 (Homo sapiens, UniProt Q16236+Q14145); assay: Inhibition of Keap1-Nrf2 protein-protein interaction in human NCM460D cells assessed as fold induction at 1 to 100 uM in NQO1 mRNA level incubated for 24 hrs by RT-qPCR analysis; type: cell-based; settings: dose 1-100 µM
Target sequence in this assay (Q14145 whole entry, looked up): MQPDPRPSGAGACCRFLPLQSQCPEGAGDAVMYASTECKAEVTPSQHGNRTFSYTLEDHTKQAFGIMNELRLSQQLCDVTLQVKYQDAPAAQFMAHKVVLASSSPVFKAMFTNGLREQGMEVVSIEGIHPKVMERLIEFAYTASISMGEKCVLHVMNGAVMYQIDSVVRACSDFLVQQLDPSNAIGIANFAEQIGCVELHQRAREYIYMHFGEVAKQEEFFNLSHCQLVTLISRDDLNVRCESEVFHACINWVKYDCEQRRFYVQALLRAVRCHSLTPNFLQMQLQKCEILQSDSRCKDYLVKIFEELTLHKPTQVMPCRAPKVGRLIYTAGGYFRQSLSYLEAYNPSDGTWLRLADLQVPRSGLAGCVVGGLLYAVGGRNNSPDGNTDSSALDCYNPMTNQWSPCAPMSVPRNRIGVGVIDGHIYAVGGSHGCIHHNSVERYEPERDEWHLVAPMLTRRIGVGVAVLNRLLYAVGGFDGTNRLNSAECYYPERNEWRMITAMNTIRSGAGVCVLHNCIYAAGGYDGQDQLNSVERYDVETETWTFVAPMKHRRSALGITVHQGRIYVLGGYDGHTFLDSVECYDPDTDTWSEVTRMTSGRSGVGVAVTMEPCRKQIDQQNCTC
Target sequence in this assay (Q16236 whole entry, looked up): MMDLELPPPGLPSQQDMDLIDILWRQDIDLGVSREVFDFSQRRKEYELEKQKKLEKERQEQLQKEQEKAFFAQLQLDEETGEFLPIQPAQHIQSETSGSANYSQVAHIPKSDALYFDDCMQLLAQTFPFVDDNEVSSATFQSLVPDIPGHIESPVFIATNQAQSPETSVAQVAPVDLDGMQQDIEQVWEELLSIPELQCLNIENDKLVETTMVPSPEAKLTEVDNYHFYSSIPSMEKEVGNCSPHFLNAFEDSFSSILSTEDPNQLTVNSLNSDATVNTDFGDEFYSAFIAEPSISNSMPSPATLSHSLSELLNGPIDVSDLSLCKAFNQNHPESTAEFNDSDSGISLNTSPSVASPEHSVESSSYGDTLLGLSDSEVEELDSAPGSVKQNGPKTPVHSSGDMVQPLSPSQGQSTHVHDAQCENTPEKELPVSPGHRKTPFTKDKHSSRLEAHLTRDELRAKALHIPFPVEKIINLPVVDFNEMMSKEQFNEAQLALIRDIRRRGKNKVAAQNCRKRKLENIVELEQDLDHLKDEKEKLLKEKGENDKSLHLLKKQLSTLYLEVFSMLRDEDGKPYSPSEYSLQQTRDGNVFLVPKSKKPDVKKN

Keap1/Nrf2 [4] = molecular target: T1, Keap1/Nrf2; assay: (§1) Inhibition of Keap1-Nrf2 protein-protein interaction (unknown origin) assessed as inhibition constant by TR-FRET assay
Keap1/Nrf2 [5] = molecular target: T1, Keap1/Nrf2; assay: Inhibition of Keap1-Nrf2 protein-protein interaction (unknown origin) by TR-FRET assay
Keap1/Nrf2 [6] = molecular target: T2, Keap1/Nrf2; assay: as §1
Target sequence in this assay (Q16236 whole entry): as the sequence (Q16236 whole entry, looked up) above
Target sequence in this assay (Q14145 whole entry): as the sequence (Q14145 whole entry, looked up) above

T1 sequence (Q16236 whole entry): as the sequence (Q16236 whole entry, looked up) above
T1 sequence (Q14145 whole entry): as the sequence (Q14145 whole entry, looked up) above

| Structure (SMILES) | IC50 (Keap1/Nrf2 [1]) [µM] | Ki (Keap1/Nrf2 [2]) [µM] | Ki (Keap1/Nrf2 [4]) [µM] | also measured |
| --- | --- | --- | --- | --- |
| Cc1ccc(S(=O)(=O)N(CC(=O)O)c2ccc(N(CC(=O)O)S(=O)(=O)c3ccc(C)cc3)c(OCCN3C(=O)c4ccccc4C3=O)c2)cc1 | 0.228 | 0.0306 |  |  |
| Cc1ccc(S(=O)(=O)N(CC(=O)O)c2cc(OCC(=O)O)c(N(CC(=O)O)S(=O)(=O)c3ccc(C)cc3)c3ccccc23)cc1 |  |  |  | FC (Keap1/Nrf2 [3]): 15 |
| Cc1ccc(S(=O)(=O)N(CC(=O)O)c2ccc(N(CC(=O)O)S(=O)(=O)c3ccc(C)cc3)c(CCC(=O)O)c2)cc1 | 0.565 | 0.1 |  |  |
| Cc1ccc(S(=O)(=O)N(CC(=O)O)c2ccc(N(CC(=O)O)S(=O)(=O)c3ccc(C)cc3)c(OCc3ccc(F)cc3)c2)cc1 |  | 0.0763 |  |  |
| COc1ccc(S(=O)(=O)N(CC(=O)O)c2ccc(N(CC(=O)O)S(=O)(=O)c3ccc(OC)cc3)c(OS(=O)(=O)c3c(C)cc(C)cc3C)c2)cc1 |  |  | 0.0507 |  |
| COc1ccc(S(=O)(=O)N(CC(=O)O)c2ccc(N(CC(=O)O)S(=O)(=O)c3ccc(OC)cc3)c(OS(=O)(=O)Cc3ccccc3)c2)cc1 |  |  | 0.082 |  |
| Cc1ccc(S(=O)(=O)N(CC(=O)O)c2cc(CCC(=O)O)c(N(CC(=O)O)S(=O)(=O)c3ccc(C)cc3)c3ccccc23)cc1 | 0.0693 | ~0.001 | 0.0091 | IC50 (Keap1/Nrf2 [5]): 0.0223 µM; FC (Keap1/Nrf2 [3]): 8 |
| COc1ccc(S(=O)(=O)N(CC(=O)O)c2ccc(N(CC(=O)O)S(=O)(=O)c3ccc(OC)cc3)c(OC(=O)c3ccccc3)c2)cc1 | 1.78 |  | 0.351 |  |
| Cc1ccc(S(=O)(=O)N(CC(=O)O)c2ccc(N(CC(=O)O)S(=O)(=O)c3ccc(C)cc3)c(O[C@H](C)C(=O)O)c2)cc1 |  |  |  | Ki (Keap1/Nrf2 [6]): 0.0414 µM |
| Cc1ccc(S(=O)(=O)N(CC(=O)O)c2ccc(N(CC(=O)O)S(=O)(=O)c3ccc(C)cc3)c(NCC(=O)O)c2)cc1 | 1.78 | 0.351 |  |  |
| COc1ccc(S(=O)(=O)N(CC(=O)O)c2ccc(N(CC(=O)O)S(=O)(=O)c3ccc(OC)cc3)c(OCC(=O)N3CCC(c4ccccc4)CC3)c2)cc1 | 0.76 |  | 0.141 |  |
| COc1ccc(S(=O)(=O)N(CC(=O)O)c2ccc(N(CC(=O)O)S(=O)(=O)c3ccc(OC)cc3)c(C(=O)Oc3ccccc3)c2)cc1 | 3.85 |  | 0.78 |  |
| COc1ccc(S(=O)(=O)N(CC(=O)O)c2ccc(N(CC(=O)O)S(=O)(=O)c3ccc(OC)cc3)c(OS(=O)(=O)c3ccccc3)c2)cc1 | 0.439 |  | 0.0742 |  |
| Cc1ccc(S(=O)(=O)N(CC(=O)O)c2ccc(N(CC(=O)O)S(=O)(=O)c3ccc(C)cc3)c(O[C@@H](C)C(=O)O)c2)cc1 | 0.136 | 0.0116 | 0.0322 | IC50 (Keap1/Nrf2 [5]): 0.0722 µM |
| COc1ccc(S(=O)(=O)N(CC(=O)O)c2ccc(N(CC(=O)O)S(=O)(=O)c3ccc(OC)cc3)c(OCC(=O)Nc3ccccc3)c2)cc1 | 7.68 |  | 1.57 |  |
| Cc1ccc(S(=O)(=O)N(CC(=O)O)c2ccc(N(CC(=O)O)S(=O)(=O)c3ccc(C)cc3)c(OCc3nnn[nH]3)c2)cc1 | 0.408 | 0.068 |  |  |
| COc1ccc(S(=O)(=O)N(CC(=O)O)c2ccc(N(CC(=O)O)S(=O)(=O)c3ccc(OC)cc3)c(OS(=O)(=O)c3ccc(-c4ccccc4)cc3)c2)cc1 |  |  | 0.0783 |  |
| COc1ccc(S(=O)(=O)N(CC(=O)O)c2ccc(N(CC(=O)O)S(=O)(=O)c3ccc(OC)cc3)c(OCC(=O)N3CCN(C)CC3)c2)cc1 | 2.26 |  | 0.452 |  |
| Cc1ccc(S(=O)(=O)N(CC(=O)O)c2ccc(N(CC(=O)O)S(=O)(=O)c3ccc(C)cc3)c(OS(=O)(=O)c3c(C)cc(C)cc3C)c2)cc1 | 0.407 | 0.0676 |  |  |
| Cc1ccc(S(=O)(=O)N(CC(=O)O)c2ccc(N(CC(=O)O)S(=O)(=O)c3ccc(C)cc3)c(OCC(=O)N3CCOCC3)c2)cc1 | 0.641 | 0.116 |  |  |
| COc1ccc(S(=O)(=O)N(CC(=O)O)c2ccc(N(CC(=O)O)S(=O)(=O)c3ccc(OC)cc3)c(OCC(=O)c3ccccc3)c2)cc1 | 0.593 |  | 0.106 |  |
| COc1ccc(S(=O)(=O)N(CC(=O)O)c2ccc(N(CC(=O)O)S(=O)(=O)c3ccc(OC)cc3)c(OCC(=O)N3CCOCC3)c2)cc1 | 0.399 |  | 0.0661 |  |
| COc1ccc(S(=O)(=O)N(CC(=O)O)c2ccc(N(CC(=O)O)S(=O)(=O)c3ccc(OC)cc3)c(C(=O)OCc3ccccc3)c2)cc1 | 1.61 |  | 0.316 |  |
| COc1ccc(S(=O)(=O)N(CC(=O)O)c2ccc(N(CC(=O)O)S(=O)(=O)c3ccc(OC)cc3)c(OCCN3CCOCC3)c2)cc1 | 2.5 |  | 0.5 |  |
